In patent US20210275415A1, “AN ANTIMICROBIAL COMPOSITION” (Conopco, Inc., d/b/a UNILEVER, priority 2017, published 2021):
Read-outs that look alike come from different tables or passages of the source. Each block holds one compound with its values, some of them ahead of it.

Key:
Malassezia furfur = assay: ΣFIC assay against Malassezia furfur (MIC by alamar blue, checkerboard); format: cell-based, M. furfur (CBS 1878); details: M. furfur, Pityrosporum Broth, 32° C., lowest concentration giving complete growth inhibition (alamar blue stays blue), active alone; for MIC: Malassezia furfur, read-out: Minimum Inhibition Concentration (MIC)
Description: Synergistic interaction between ZPTO and the AML compounds was determined using the ΣFIC assay against Malassezia furfur. A brief description of the method is given below.
Method: ΣFIC assay against Malassezia furfur
They are then incubated at 32° C. for 48 hours with shaking. Then, 1 ml of the first broth culture is transferred into 9 ml of fresh PB and incubated at 32° C. for 48 hours with shaking. The final culture should contain 2 to 6×10^6 cells/ml. This is achieved by diluting using PB to 5*10^5 cell/ml.
(§1) Binary combinations of ZPTO and the AML compound were prepared in 96-well plate by mixing 20 μl of zinc pyrithione solution with 20 μl of AML compound. The solution in each well were further mixed with 160 μl of PB and 20 μl of M. furfur. The final cell density in the testing plate is around 5*10^4 cell/ml, and the final concentration of actives in each well of the 96-well plate were shown below.
The plate was incubated at 32° C. for one day. Then 20 μl of alamar blue (0.01%) was added into each well with a further incubation for one day to observe the color change. Red color indicates microbial growth and the non-changing blue color indicates no growth.
(§2) The MIC is defined as the absolute lowest concentration of active that provides complete microbial growth inhibition as indicated by the blue color of alamar blue under the tested condition.
The differing behaviour of inhibitory antimicrobials in isolation and mixtures have been widely explored using the concept of the Fractional Concentration (FC) and Fractional Inhibitory Concentration (FIC). The parameter can be defined as follows: […]
(§3) These relationships can be expressed mathematically by summing the fractional MIC values for all the components present in the mixture to give the “fractional inhibition index”. There is no consistent approach in the academic or patent literature in defining precise limiting ΣFIC values that differentiate synergy from additivity or antagonism. In this study, we have adopted a liberal approach defining any binary mixture with ΣFIC<0.9 as showing evidence of synergistic behavior.

Staphylococcus aureus = assay: ΣFIC assay against Staphylococcus aureus (MIC by alamar blue, checkerboard); format: cell-based, S. aureus (ATCC 12600); details: for MIC: Staphylococcus aureus, 24 h, read-out: Minimum Inhibition Concentration (MIC); for interaction of the combination (synergy/additivity) in words: conclusion from Table 2
Description: Effect of sphingosine with triclosan as well as triclocarban was also tested. A brief description of the method is given below.
Methods: ΣFIC assay against Staphylococcus aureus
They are then incubated at 37° C. overnight (16 hours) with shaking. The overnight culture is diluted using TSB to 5*10^4 cell/ml.
Zinc pyrithione was serially diluted (2-fold) to prepare in a range of 0.5 to 500 ppm in the growth medium. The AML compound was serially diluted (2-fold) to prepare in a range of 16 to 1,000 ppm for sapienic acid, and palmitoleic acid; and 4 to 250 ppm for other AMLs in growth medium. Triclosan was serially diluted (2-fold) to prepare in a range of 0.2 to 200 ppm and triclocarban in a range of 2 to 2000 ppm in growth medium.
as §1, with “ZPTO or triclosan/triclocarban” for “ZPTO”, “TSB” for “PB”, “S. aureus.” for “M. furfur.”, “4*10^4” for “5*10^4”
Then 20 μl of alamar blue (0.01%) was added into each well, and the plate was incubated at 37° C. for one day to observe the color change. Red color indicates microbial growth and the non-changing blue color indicates no growth.
as §2
The differing behaviors of inhibitory antimicrobials in isolation and mixtures have been widely explored using the concept of the Fractional Concentration (FC) and Fractional Inhibitory Concentration (FIC). The parameter can be defined as follows: […]
as §3

[1] = S. aureus, TSB, 37° C. one day, lowest concentration giving complete growth inhibition (alamar blue stays blue), active alone

Structure (SMILES): CCCCCCCCCCCCCCC[C@@H](O)[C@@H](N)CO [dihydrosphingosine]
Minimum Inhibition Concentration (MIC) (Malassezia furfur): 1000 ppm
Minimum Inhibition Concentration (MIC) (Staphylococcus aureus; [1]): 6.3 ppm

Structure (SMILES): CCCCCC/C=C\CCCCCCCC(=O)O [palmitoleic acid]
MIC (Malassezia furfur): 5000 µg/mL

Structure (SMILES): CCCCCCCCCCCCCC[C@@H](O)[C@@H](O)[C@@H](N)CO [phytosphingosine]
MIC (Malassezia furfur): 125 µg/mL

Structure (SMILES): Oc1cc(Cl)ccc1Oc1ccc(Cl)cc1Cl [triclosan]
interaction of the combination (synergy/additivity) in words (Staphylococcus aureus; S. aureus): additive but not synergistic effect
MIC (Staphylococcus aureus): 0.16 µg/mL

Further lines, with some results ahead:

Minimum Inhibition Concentration (MIC) (Staphylococcus aureus; [1]): 25 ppm
Structure (SMILES): CCCCCCCCC/C=C\CCCCC(=O)O [sapienic acid]

MIC (Malassezia furfur): 1000 µg/mL
MIC (Staphylococcus aureus; [1]): 3.1 µg/mL
Structure (SMILES): CCCCCCCCCCCCC/C=C/[C@@H](O)[C@@H](N)CO [sphingosine]

MIC (Staphylococcus aureus; [1]): 3.13 µg/mL
Structure (SMILES): O=C(Nc1ccc(Cl)cc1)Nc1ccc(Cl)c(Cl)c1 [triclocarban]
interaction of the combination (synergy/additivity) in words (Staphylococcus aureus; S. aureus): additive but not synergistic effect
